Results taken from BindingDB's records for PubMed 2867217 (Smith Kline & French Laboratories, 1986).
pKi: −log10 of the molar value. Values joined by “and” are separate entries in the source; they are usually repeats but may differ in a detail not shown here. Equal entries are not always repeated. Structures can show the parent of a compound that is named as a salt.

What was measured:
[1] = molecular target: T1, Alpha-1A adrenergic receptor (Oryctolagus cuniculus, UniProt O02824)
T1 sequence (O02824 whole entry): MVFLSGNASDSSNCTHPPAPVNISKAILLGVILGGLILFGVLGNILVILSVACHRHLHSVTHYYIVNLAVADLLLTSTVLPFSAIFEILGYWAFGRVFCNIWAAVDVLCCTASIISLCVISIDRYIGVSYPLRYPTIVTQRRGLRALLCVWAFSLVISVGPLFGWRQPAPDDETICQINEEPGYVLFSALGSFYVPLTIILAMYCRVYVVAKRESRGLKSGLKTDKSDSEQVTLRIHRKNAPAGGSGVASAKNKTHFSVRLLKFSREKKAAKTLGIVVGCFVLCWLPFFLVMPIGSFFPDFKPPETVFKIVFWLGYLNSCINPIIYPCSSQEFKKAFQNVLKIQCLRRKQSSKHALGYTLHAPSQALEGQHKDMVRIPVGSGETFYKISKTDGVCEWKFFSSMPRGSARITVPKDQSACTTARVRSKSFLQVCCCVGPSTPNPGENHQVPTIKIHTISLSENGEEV

[2] = molecular target: T2, Alpha-2B adrenergic receptor (Oryctolagus cuniculus, UniProt O77830)
T2 sequence (O77830 whole entry): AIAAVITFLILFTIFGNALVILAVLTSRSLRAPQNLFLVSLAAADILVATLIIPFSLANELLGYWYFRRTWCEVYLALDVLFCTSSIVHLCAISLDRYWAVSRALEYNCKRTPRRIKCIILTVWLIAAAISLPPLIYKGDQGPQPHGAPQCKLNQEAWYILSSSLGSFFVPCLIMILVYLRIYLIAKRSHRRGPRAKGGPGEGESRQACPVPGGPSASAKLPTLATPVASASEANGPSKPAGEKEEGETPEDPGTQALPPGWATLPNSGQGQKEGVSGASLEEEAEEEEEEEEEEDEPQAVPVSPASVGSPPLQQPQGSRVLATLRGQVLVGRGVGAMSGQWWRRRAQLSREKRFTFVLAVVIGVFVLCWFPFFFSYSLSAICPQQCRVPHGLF

[3] = molecular target: T3, Alpha-1A adrenergic receptor (Canis lupus familiaris, UniProt O77621)
T3 sequence (O77621 whole entry): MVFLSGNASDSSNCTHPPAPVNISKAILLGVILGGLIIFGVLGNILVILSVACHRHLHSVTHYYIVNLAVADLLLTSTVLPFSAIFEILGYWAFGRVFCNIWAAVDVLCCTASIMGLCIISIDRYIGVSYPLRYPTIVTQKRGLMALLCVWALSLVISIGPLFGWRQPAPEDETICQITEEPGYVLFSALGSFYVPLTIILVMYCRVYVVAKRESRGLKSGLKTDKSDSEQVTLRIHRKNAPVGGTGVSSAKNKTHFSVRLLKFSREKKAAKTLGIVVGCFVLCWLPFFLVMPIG

[4] = molecular target: T4, Alpha-2B adrenergic receptor (Canis lupus familiaris, UniProt Q2MDQ0)
T4 sequence (Q2MDQ0 whole entry): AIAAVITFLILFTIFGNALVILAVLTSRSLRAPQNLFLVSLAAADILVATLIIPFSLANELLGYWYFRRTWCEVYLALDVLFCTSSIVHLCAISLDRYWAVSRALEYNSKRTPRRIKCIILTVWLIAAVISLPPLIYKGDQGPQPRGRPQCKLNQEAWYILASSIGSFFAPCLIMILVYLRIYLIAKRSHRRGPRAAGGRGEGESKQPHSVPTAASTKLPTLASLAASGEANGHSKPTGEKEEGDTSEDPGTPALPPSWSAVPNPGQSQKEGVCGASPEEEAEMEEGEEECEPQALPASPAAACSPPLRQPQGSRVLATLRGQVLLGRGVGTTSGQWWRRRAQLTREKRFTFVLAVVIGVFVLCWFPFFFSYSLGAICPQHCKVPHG

[5] = molecular target: T5, Alpha-2A adrenergic receptor (Cavia porcellus, UniProt Q60474)
T5 sequence (Q60474 whole entry): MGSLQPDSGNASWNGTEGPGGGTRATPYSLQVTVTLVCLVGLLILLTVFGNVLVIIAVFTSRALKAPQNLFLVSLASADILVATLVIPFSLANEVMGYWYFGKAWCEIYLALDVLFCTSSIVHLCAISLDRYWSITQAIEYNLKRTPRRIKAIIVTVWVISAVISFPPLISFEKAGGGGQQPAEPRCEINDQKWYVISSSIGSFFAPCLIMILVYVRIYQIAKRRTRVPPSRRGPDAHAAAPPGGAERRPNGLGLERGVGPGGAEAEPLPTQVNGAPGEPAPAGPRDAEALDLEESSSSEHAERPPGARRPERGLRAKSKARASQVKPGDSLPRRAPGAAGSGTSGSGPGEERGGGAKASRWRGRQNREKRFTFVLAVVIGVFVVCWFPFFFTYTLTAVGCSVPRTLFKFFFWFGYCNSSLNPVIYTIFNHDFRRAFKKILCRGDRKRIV

[6] = molecular target: T6, Alpha-1D adrenergic receptor (Mus musculus, UniProt P97714)
T6 sequence (P97714 whole entry): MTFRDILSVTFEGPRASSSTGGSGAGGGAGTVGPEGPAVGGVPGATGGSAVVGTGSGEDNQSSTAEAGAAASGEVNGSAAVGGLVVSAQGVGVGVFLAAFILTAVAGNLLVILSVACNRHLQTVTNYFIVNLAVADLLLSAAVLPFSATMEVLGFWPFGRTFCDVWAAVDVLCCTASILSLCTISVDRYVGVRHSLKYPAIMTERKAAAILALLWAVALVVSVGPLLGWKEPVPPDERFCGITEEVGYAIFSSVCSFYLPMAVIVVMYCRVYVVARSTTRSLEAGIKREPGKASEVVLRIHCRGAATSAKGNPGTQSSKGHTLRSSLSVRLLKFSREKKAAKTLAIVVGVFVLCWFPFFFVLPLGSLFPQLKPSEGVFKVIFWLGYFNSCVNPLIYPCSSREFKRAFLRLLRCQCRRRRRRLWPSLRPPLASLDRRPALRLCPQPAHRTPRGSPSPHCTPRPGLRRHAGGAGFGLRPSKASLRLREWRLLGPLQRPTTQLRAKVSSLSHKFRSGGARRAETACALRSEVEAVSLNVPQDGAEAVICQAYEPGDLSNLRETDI

With `COC(=O)[C@@H]1[C@H]2C[C@H]3c4[nH]c5ccccc5c4CCN3C[C@@H]2CC[C@@H]1O` [yohimbic acid methyl ester] the pKi [1] was 5.96 and 6.56 and the pKi [2] was 7.68.

With `CN1CCc2cccc(Cl)c2CC1` [MLS002172470] the pKi [3] was 5.96, the pKi [1] was 6.05 and the pKi [4] was 7.38. The pKi [5] was 7.89.

Molecule `c1ccc2c(c1)OCC(C1=NCCN1)O2` (stereo not given) has a pKi [6] of 7.92 and a pKi [1] of 5.64.

For `COC(=O)[C@H]1[C@H]2C[C@H]3c4[nH]c5ccccc5c4CCN3C[C@H]2CC[C@@H]1O` [RAUWOLSCINE HYDROCHLORIDE], the pKi [3] was 6.63 and the pKi [1] was 5.74 and 5.40 and 5.89.
